Experimental data reported in patent US6784175B2, “Use of substituted 1-amino-5-phenylpentane-3-ol and/or 1-amino-6-phenylhexane-3-ol compounds as medicaments” (Gruenenthal GmbH, priority 2000, dated 2004).

Tests used:
[1] = tested on: (+)-MK801 binding site of the ionotropic NMDA receptor; test: (3H)-(+)-MK801 receptor bonding test on rat cerebral membrane homogenates; settings: 1 nmol/l (3H)-(+)-MK801, rat brain membrane homogenate; for Percentage inhibition of (3H)-(+)-MK801 binding at 10 μM: 10 μmol/l compound, triple determinations; for Ki: calculated from IC50 by Cheng-Prusoff equation
Experimental: Research to determine the NMDA antagonistic effect of each compound in general formula I was carried out on cerebral membrane homogenates (homogenate of rat brain without cerebellum, pons and medulla oblongata taken from male Wistar rats (Charles River, Sulzfeld, Germany)).
For this purpose, after separating the cerebellum, pons and medulla oblongata, freshly prepared rat brains were macerated in 50 mmol/l of tris/HCl (pH 7.7) with a Polytron homogeniser (model PT3000, Kinematika AG, Littau, Switzerland) at 6000 revolutions per minute (rpm) for 1 minute with ice cooling and centrifuged for 15 minutes at 4° C. and 60,000 g. After decanting and discarding the supernatant, again placing in 50 mmol/l of tris/HCl (pH 7.7) and macerating the membrane pellet with a homogeniser at 2000 rpm for 1 minute, it was centrifuged again for 15 minutes at 4° C. and 60,000 g. The supernatant was again discarding and the membrane pellet homogenised (2000 rpm for 1 minute) in 50 mmol/l of tris/HCl (pH 7.7) and frozen in aliquots at −70° C.
For the receptor bonding test, each aliquot was defrosted and then centrifuged for 15 minutes at 4° C. and 60,000 g. After decanting and discarding the supernatant, the membrane pellet was taken up with bonding test buffer and homogenised (2000 rpm for 1 minute). The bonding test buffer was 5 mmol/l tris/HCl (pH 7.7) supplemented with 30 μmol/l of glycine and 100 μmol/l of glutamic acid.
1 nmol/l of (^3H)-(+)-MK801 ((5R, 10S)-(+)-5-methyl-10,11-dihydro-5H-dibenzo(a,d)cycloheptane-5,10-imine was used as a radioactively marked ligand (NET-972, NEN, Cologne Germany). The proportion of unspecific bonding was determined in the presence of 10 μmol/l of non-radioactively marked (+)-MK801 (RBI/Sigma, Deisenhofen, Germany). In further batches, each of the compounds of general formula I were added in series of concentrations and the displacement of the radioactive ligand out of its specific bond to the NMDA receptor determined. All the batches were subjected to triple determinations. The batches were each incubated for 40 minutes at 25° C. in a water bath and then harvested for determination of the radioactive ligand bound to the cerebral membrane homogenate by means of filtration through glass-fibre filters (GF/B) (Whatman GF/B, Hassel, Munich, Germany). The radioactivity retained by the glass-fibre filter discs was measured in a β counter (Packard TRI-CARB Liquid Scintillation Analyser 2000CA, Packard Instrument, Meriden, Conn. 06450, USA) after adding a scintillator (“Ready Protein” scintillator, Beckmann Coulter GmhH, Krefeld, Germany).
The percentage inhibition of the specific bonding of the ligand (^3H)-(+)-MK801 in the presence of 10 μmol/l of each compound of general formula I resulting from the triple batches is used as a measure of the affinity of the compound for the (+)-MK801 binding site of the ionotropic NMDA receptor. From batches with concentration series of these compounds of general formula I, the IC50 values (concentration of substituted compounds with 50% displacement of radioactive ligand out of its specific bond) were calculated in accordance with the law of mass action using non-linear regression. From these IC50 values, the Kj values were calculated in accordance with the Cheng-Prusoff equation (Y. Cheng, W. H. Prusoff, 1973, Biochem. Pharmacol., 22, pp 3099-3108).

Compound	melting point	Percentage inhibition of (3H)-(+)-MK801 binding at 10 μM [1]	Ki [1]	Percentage inhibition of (3H)-(+)-MK801 binding at 10 μM ([1]; hydrochloride, 10 µM)	Ki ([1]; hydrochloride)
CN(C)C(c1ccccc1Cl)C1CCCCC1(O)CCc1ccccc1.Cl (stereo not shown) [Example 2, 2-[(2-chlorophenyl)dimethylaminomethyl]-1-phenethylcyclohexanol, hydrochloride]	110 °C	95%	1700 nM		
CN(C)C(c1ccccc1F)C1CCCCC1(O)CCc1ccccc1Cl.Cl (stereo not shown) [Example 19, 1-[2-(2-chlorophenyl)ethyl]-2-(dimethylamino-(2-fluorophenyl)methyl]cyclohexanol, hydrochloride]	213 °C	102%	800 nM		
CN(C)C(c1ccccc1)C1CCCCC1(O)CCCc1ccccc1.Cl (stereo not shown) [Example 6, 2-(dimethylaminophenylmethyl)-1-(3-phenylpropyl)cyclohexanol, hydrochloride]	90 °C	74%	2600 nM		
Cl.OC1(CCc2ccccc2)CCCCC1C(c1ccccc1)N1CCCCC1 (stereo not shown) [Example 14, 1-phenethyl-2-(phenylpiperidine-1-yl-methyl)cyclohexanol, hydrochloride]	127 °C	88%	2800 nM		
CN(C)C(c1ccccc1Cl)C1CCCCC1(O)CCc1cccc(F)c1.Cl (stereo not shown) [Example 11, 2-[(2-chlorophenyl)dimethylaminomethyl]-1-[2-(3-fluorophenyl)ethyl]cyclohexanol, hydrochloride]	120 to 126 °C	93%	2100 nM		
CN(C)C(c1ccccc1Br)C1CCCCC1(O)CCc1ccccc1.Cl (stereo not shown) [Example 3, 2-[(2-bromophenyl)dimethylaminomethyl]-1-phenethylcyclohexanol, hydrochloride]	162 to 165 °C	91%	1700 nM		
CN(C)C(c1ccccc1)C1CCCCC1(O)CCc1cccc(Cl)c1.Cl (stereo not shown) [Example 13, 1-[2-(3-chlorophenyl)ethyl]-2-(dimethylaminophenylmethyl)cyclohexanol, hydrochloride]	95 °C	61%	3100 nM		
Cc1ccccc1C(C1CCCCC1(O)CCc1ccccc1)N(C)C.Cl (stereo not shown) [Example 5, 2-(dimethylamino-o-tolylmethyl)-1-phenethylcyclohexanol, hydrochloride]	187 to 188 °C	93%	1300 nM		
CN(C)C(c1ccccc1)C1CCCCC1(O)CCc1ccccc1F.Cl (stereo not shown) [Example 7, 2-(dimethylaminophenylmethyl)-1-[2-(2-fluorophenyl)ethyl]cyclohexanol, hydrochloride]	95 °C	91%	1100 nM		
CN(C)C(c1ccccc1Cl)C1CCCCC1(O)CCc1ccc(F)cc1.Cl (stereo not shown) [Example 9, 2-[(2-chlorophenyl)dimethylaminomethyl]-1-[2-(4-fluorophenyl)ethyl]cyclohexanol, hydrochloride]	170 °C	67%	3800 nM		
Cc1ccccc1C(C1CCCCC1(O)CCc1ccccc1F)N(C)C.Cl (stereo not shown) [Example 30, 2-(dimethylamino-o-tolylmethyl)-1-[2-(2-fluorophenyl)ethyl]cyclohexanol, hydrochloride]		105%	300 nM		
COc1cccc(C(C2CCCCC2(O)CCc2ccccc2)N(C)C)c1.Cl (stereo not shown) [Example 4, 2-[dimethylamino-(3-methoxyphenyl)methyl]-1-phenethylcyclohexanol, hydrochloride]	90 °C	51%	6200 nM		
CN(C)C(c1ccccc1)C1CCCCC1(O)CCc1ccccc1.Cl (stereo not shown) [Example 1, 2-(dimethylaminophenylmethyl)-1-phenethylcyclohexanol, hydrochloride]	100 °C	56%	3800 nM		
Cc1ccccc1C(C1CCCCC1(O)CCc1ccc(F)cc1)N(C)C.Cl (stereo not shown) [Example 18, 2-(dimethylamino-o-tolylmethyl)-1-[2-(4-fluorophenyl)ethyl]cyclohexanol, hydrochloride]		54%	6100 nM		
CN(C)C(c1ccccc1F)C1CCCCC1(O)CCc1ccc(F)cc1.Cl (stereo not shown) [Example 17, 2-[dimethylamino-(2-fluorophenyl)methyl]-1-[2-(4-fluorophenyl)ethyl]cyclohexanol, hydrochloride]		54%	5800 nM		
Cc1ccccc1C(C1CCCCC1(O)CCc1ccccc1Cl)N1CCCCC1.Cl (stereo not shown) [Example 25, 1-[2-(2-chlorophenyl)ethyl]-2-(piperidine-1-yl-o-tolylmethyl)cyclohexanol, hydrochloride]		89%	1400 nM		
Cc1ccccc1C(C1CCCCC1(O)CCc1ccccc1F)N1CCCC1.Cl (stereo not shown) [Example 31, 1-[2-(2-fluorophenyl)ethyl]-2-(pyrrolidine-1-yl-o-tolylmethyl)cyclohexanol, hydrochloride]		99%	100 nM		
CN(C)C(c1ccccc1)C1CCCCC1(O)CCc1ccccc1Cl.Cl (stereo not shown) [Example 12, 1-[2-(2-chlorophenyl)ethyl]-2-(dimethylaminophenylmethyl)cyclohexanol, hydrochloride]	152 °C	85%	1500 nM		
Cc1ccccc1C(C1CCCCC1(O)CCc1cccc(Cl)c1)N(C)C.Cl (stereo not shown) [Example 16, 1-[2-(3-chlorophenyl)ethyl]-2-(dimethylamino-o-tolylmethyl)cyclohexanol, hydrochloride]				92%	1900 nM
Cc1ccccc1C(C1CCCCC1(O)CCc1ccccc1Cl)N1CCOCC1.Cl (stereo not shown) [Example 24, 1-[2-(2-chlorophenyl)ethyl]-2-(morpholine-4-yl-o-tolylmethyl)cyclohexanol, hydrochloride]		48%	3700 nM		
Cc1ccccc1CCC1(O)CCCCC1C(c1ccccc1C)N(C)C.Cl (stereo not shown) [Example 39, 2-(dimethylamino-o-tolylmethyl]-1-(2-o-tolylethyl)cyclohexanol, hydrochloride]		90%	1400 nM		
Cc1ccccc1CCC1(O)CCCCC1C(c1ccccc1)N(C)C.Cl (stereo not shown) [Example 37, 2-(dimethylaminophenylmethyl)-1-(2-o-tolylethyl)cyclohexanol, hydrochloride]		77%	1800 nM		
CN(C)C(c1ccccc1Br)C1CCCCC1(O)CCCc1ccccc1.Cl (stereo not shown) [Example 40, 2-[(2-bromophenyl)dimethylaminomethyl]-1-(3-phenylpropyl)cyclohexanol, hydrochloride]		82%	1900 nM		
CN(C)C(c1ccccc1F)C1CCCCC1(O)CCc1ccccc1.Cl (stereo not shown) [Example 8, 2-[dimethylamino-(2-fluorophenyl)methyl]-1-phenethylcyclohexanol, hydrochloride]	172 to 174 °C	91%	1600 nM		
CN(C)C(c1ccccc1C(F)(F)F)C1CCCCC1(O)CCc1ccccc1.Cl (stereo not shown) [Example 27, 2-[dimethylamino-(2-trifluoromethylphenyl)methyl]-1-phenethylcyclohexanol, hydrochloride]		67%	4200 nM		
